According to ChEMBL document CHEMBL4732255, “Evaluation of the antiproliferative activity of 106 marine microbial metabolites against human lung cancer cells and potential antiproliferative mechanism of purpuride G” (Bioorg Med Chem Lett, 2021):
The source made the active and inactive calls. The rule behind the calls is not given here.

How the values were obtained:
BEAS-2B = experiment: Cytotoxicity against human BEAS-2B cells assessed as reduction in cell viability incubated for 72 hrs by sulforhodamine B assay; assay type: cell-based
PC-9 [1] = experiment: Cell cycle arrest in human PC-9 cells assessed as accumulation at G0/G1 phase at 5 uM measured after 48 hrs by propidium iodide staining based flow cytometry (reference value: 30.67 to 31.96%); assay type: functional
PC-9 [2] = experiment: Cell cycle arrest in human PC-9 cells assessed as accumulation at S phase at 5 uM measured after 48 hrs by propidium iodide staining based flow cytometry (reference value: 52.95 to 53.28%); assay type: functional
PC-9 [3] = experiment: Cell cycle arrest in human PC-9 cells assessed as accumulation at G2/M phase at 5 uM measured after 48 hrs by propidium iodide staining based flow cytometry (reference value: 15.09 to 16.04%); assay type: functional
NCI-H157 [4] = experiment: Cell cycle arrest in human NCI-H157 cells assessed as accumulation at G0/G1 phase at 5 uM measured after 48 hrs by propidium iodide staining based flow cytometry (reference value: 56.53 to 56.73%); assay type: functional
NCI-H157 [5] = experiment: Cell cycle arrest in human NCI-H157 cells assessed as accumulation at S phase at 5 uM measured after 48 hrs by propidium iodide staining based flow cytometry (reference value: 26.33 to 26.84%); assay type: functional
NCI-H157 [6] = experiment: Cell cycle arrest in human NCI-H157 cells assessed as accumulation at G2/M phase at 5 uM measured after 48 hrs by propidium iodide staining based flow cytometry (reference value: 16.62 to 16.94%); assay type: functional
PC-9 [7] = experiment: Induction of apoptosis in human PC-9 cells assessed as early apoptotic cells at 5 uM measured after 48 hrs by Annexin V-FITC/propidium iodide staining based flow cytometry (reference value: 2.55 to 2.8%); assay type: functional
PC-9 [8] = experiment: Induction of apoptosis in human PC-9 cells assessed as late apoptotic cells at 5 uM measured after 48 hrs by Annexin V-FITC/propidium iodide staining based flow cytometry (reference value: 5.5 to 6.9%); assay type: functional
NCI-H157 [9] = experiment: Induction of apoptosis in human NCI-H157 cells assessed as early apoptotic cells at 5 uM measured after 48 hrs by Annexin V-FITC/propidium iodide staining based flow cytometry (reference value: 1 to 1.1%); assay type: functional
NCI-H157 [10] = experiment: Induction of apoptosis in human NCI-H157 cells assessed as late apoptotic cells at 5 uM measured after 48 hrs by Annexin V-FITC/propidium iodide staining based flow cytometry (reference value: 1.95 to 2.1%); assay type: functional
NCI-H157 [11] = experiment: Antiproliferative activity against human NCI-H157 cells assessed as reduction in cell viability measured after 72 hrs by sulforhodamine B assay; assay type: functional, cell-based; conditions: NCI-H157, 72 h
A549 [12] = experiment: Antiproliferative activity against human A549 cells assessed as reduction in cell viability measured after 72 hrs by sulforhodamine B assay; assay type: functional, cell-based; conditions: A549, 72 h
NCI-H1703 = experiment: Antiproliferative activity against human NCI-H1703 cells assessed as reduction in cell viability incubated for 72 hrs by sulforhodamine B assay; assay type: functional, cell-based; conditions: NCI-H1703, 72 h
NCI-H1299 = experiment: Antiproliferative activity against human NCI-H1299 cells assessed as reduction in cell viability incubated for 72 hrs by sulforhodamine B assay; assay type: functional, cell-based; conditions: NCI-H1299, 72 h
NCI-H460 = experiment: Antiproliferative activity against human NCI-H460 cells assessed as reduction in cell viability incubated for 72 hrs by sulforhodamine B assay; assay type: functional, cell-based; conditions: NCI-H460, 72 h
PC-9 [13] = experiment: Antiproliferative activity against human PC-9 cells assessed as reduction in cell viability incubated for 72 hrs by sulforhodamine B assay; assay type: functional, cell-based; conditions: PC-9, 72 h
U-87 MG = experiment: Antiproliferative activity against human U-87MG cells assessed as reduction in cell viability incubated for 72 hrs by sulforhodamine B assay; assay type: functional, cell-based, U-87MG ATCC
U-251 = experiment: Antiproliferative activity against human U-251 cells assessed as reduction in cell viability incubated for 72 hrs by sulforhodamine B assay; assay type: functional, cell-based; conditions: U-251, 72 h
PC-9 [14] = experiment: Induction of apoptosis in human PC-9 cells assessed as viable cells at 5 uM measured after 48 hrs by Annexin V-FITC/propidium iodide staining based flow cytometry (reference value: 90.9%); assay type: functional; conditions: read-out: Activity
PC-9 [15] = experiment: Induction of apoptosis in human PC-9 cells assessed as necrotic cells at 5 uM measured after 48 hrs by Annexin V-FITC/propidium iodide staining based flow cytometry (reference value: 0.8%); assay type: functional
NCI-H157 [16] = experiment: Induction of apoptosis in human NCI-H157 cells assessed as viable cells at 5 uM measured after 48 hrs by Annexin V-FITC/propidium iodide staining based flow cytometry (reference value: 94.3%); assay type: functional; conditions: read-out: Activity
NCI-H157 [17] = experiment: Induction of apoptosis in human NCI-H157 cells assessed as necrotic cells at 5 uM measured after 48 hrs by Annexin V-FITC/propidium iodide staining based flow cytometry (reference value: 2.5%); assay type: functional
PC-9 [18] = experiment: Induction of apoptosis in human PC-9 cells assessed as downregulation of Bcl-2 protein expression at 2 to 5 uM incubated for 24 hrs by western blot analysis; assay type: functional, cell-based; conditions: dose 2-5 µM
PC-9 [19] = experiment: Induction of apoptosis in human PC-9 cells assessed as upregulation of Bax protein expression at 2 to 5 uM incubated for 24 hrs by western blot analysis; assay type: functional, cell-based; conditions: dose 2-5 µM
PC-9 [20] = experiment: Induction of apoptosis in human PC-9 cells assessed as induction of PARP cleavage at 2 to 5 uM incubated for 24 hrs by western blot analysis; assay type: functional, cell-based; conditions: dose 2-5 µM
NCI-H157 [21] = experiment: Induction of apoptosis in human NCI-H157 cells assessed as downregulation of Bcl-2 protein expression at 2 to 5 uM incubated for 24 hrs by western blot analysis; assay type: functional, cell-based; conditions: dose 2-5 µM
NCI-H157 [22] = experiment: Induction of apoptosis in human NCI-H157 cells assessed as upregulation of Bax protein expression at 2 to 5 uM incubated for 24 hrs by western blot analysis; assay type: functional, cell-based; conditions: dose 2-5 µM
NCI-H157 [23] = experiment: Induction of apoptosis in human NCI-H157 cells assessed as induction of PARP cleavage at 2 to 5 uM incubated for 24 hrs by western blot analysis; assay type: functional, cell-based; conditions: dose 2-5 µM
PC-9 [24] = experiment: Inhibition of glycolysis in human PC-9 cells assessed as reduction in extracellular glucose consumption at 5 uM incubated for 24 hrs; assay type: functional, cell-based
PC-9 [25] = experiment: Inhibition of glycolysis in human PC-9 cells assessed as reduction in lactate release at 5 uM incubated for 24 hrs; assay type: functional, cell-based
NCI-H157 [26] = experiment: Inhibition of glycolysis in human NCI-H157 cells assessed as reduction in extracellular glucose consumption at 5 uM incubated for 24 hrs; assay type: functional, cell-based
NCI-H157 [27] = experiment: Inhibition of glycolysis in human NCI-H157 cells assessed as reduction in lactate release at 5 uM incubated for 24 hrs; assay type: functional, cell-based
PC-9 [28] = experiment: Inhibition of glycolysis in human PC-9 cells assessed as downregulation of HK2 protein expression at 2 to 5 uM incubated for 24 hrs by western blot analysis; assay type: functional, cell-based; conditions: dose 2-5 µM
PC-9 [29] = experiment: Inhibition of glycolysis in human PC-9 cells assessed as downregulation of PKM2 protein expression at 2 to 5 uM incubated for 24 hrs by western blot analysis; assay type: functional, cell-based; conditions: dose 2-5 µM
NCI-H157 [30] = experiment: Inhibition of glycolysis in human NCI-H157 cells assessed as downregulation of HK2 protein expression at 2 to 5 uM incubated for 24 hrs by western blot analysis; assay type: functional, cell-based; conditions: dose 2-5 µM
NCI-H157 [31] = experiment: Inhibition of glycolysis in human NCI-H157 cells assessed as downregulation of PKM2 protein expression at 2 to 5 uM incubated for 24 hrs by western blot analysis; assay type: functional, cell-based; conditions: dose 2-5 µM
A549 [32] = experiment: Antiproliferative activity against human A549 cells assessed as cell viability at 50 uM measured after 72 hrs by sulforhodamine B assay; assay type: functional; conditions: read-out: Activity
NCI-H157 [33] = experiment: Antiproliferative activity against human NCI-H157 cells assessed as cell viability at 50 uM measured after 72 hrs by sulforhodamine B assay; assay type: functional; conditions: read-out: Activity

`CC1(C)CC[C@H](O)[C@@]2(C)[C@H]1CC=C1C(=O)OC[C@@]12O` showed an IC50 (BEAS-2B) of 6.3 µM, an Activity (PC-9 [1]) of 55.77% and an Activity (PC-9 [2]) of 22.97%. The Activity (PC-9 [3]) was 20.29%, the Activity (NCI-H157 [4]) was 47.83% and the Activity (NCI-H157 [5]) was 36.68%. It also gave an Activity (NCI-H157 [6]) of 15.21%, an Activity (PC-9 [7]) of 5.7% and an Activity (PC-9 [8]) of 32.1%. It also gave an Activity (NCI-H157 [9]) of 6.1%, an Activity (NCI-H157 [10]) of 18.15% and an IC50 (NCI-H157 [11]) of 2.9 µM. For the same compound, the IC50 (A549 [12]) was 3.3 µM, the IC50 (NCI-H1703) was 3.6 µM and the IC50 (NCI-H1299) was 2.7 µM. It also gave an IC50 (NCI-H460) of 2.3 µM, an IC50 (PC-9 [13]) of 2.1 µM and an IC50 (U-87 MG) of 10.4 µM. The IC50 (U-251) was 4.5 µM, the viability at 5 µM (PC-9 [14]) was 38.1% and the Activity (PC-9 [15]) was 23.4%. The viability at 5 µM (NCI-H157 [16]) was 70.7%, the Activity (NCI-H157 [17]) was 4.9% and the Activity (PC-9 [18]) was “Active”. The Activity (PC-9 [19]) was “Active”, the Activity (PC-9 [20]) was “Active” and the Activity (NCI-H157 [21]) was “Active”. For the same compound, the Activity (NCI-H157 [22]) was “Active”, the Activity (NCI-H157 [23]) was “Active” and the inhibition (PC-9 [24]) was “Active”. For the same compound, the inhibition (PC-9 [25]) was “Active”, the inhibition (NCI-H157 [26]) was “Active” and the inhibition (NCI-H157 [27]) was “Active”. For the same compound, the inhibition (PC-9 [28]) was “Active”, the inhibition (PC-9 [29]) was “Active” and the inhibition (NCI-H157 [30]) was “Active”. The inhibition (NCI-H157 [31]) was “Active”, the viability at 50 µM (A549 [32]) was under 50% and the viability at 50 µM (NCI-H157 [33]) was under 50%.
